Several values for one entry are separate records, joined by “and”; a condition that tells them apart may be missing. Identical values can stand only once.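 Five compound concentrations were applied to cells in 96-well plates for 48 hours; endpoints were derived by simple linear interpolation of the resulting dose-response curve. Abbreviation: GI50, concentration required for 50% inhibition of growth. TGI marks complete inhibition of growth.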
Columns and labels:
Assay in all cases: NCI tumour cell line growth inhibition, 48 h
[1] = test system: OVCAR-5 ovarian
[2] = test system: MOLT-4 leukemia
[3] = test system: KM12 colon
[4] = test system: HT29 colon
[5] = test system: SNB-19 CNS
[6] = test system: NCI-H522 lung
[7] = test system: K-562 leukemia
[8] = test system: LOX IMVI melanoma
[9] = test system: OVCAR-4 ovarian
[10] = test system: SW-620 colon

Structure (SMILES)	TGI [1]	TGI [2]	TGI [3]	TGI [4]	TGI [5]	TGI [6]	TGI [7]	TGI [8]	TGI [9]	TGI [10]	GI50 [1]	GI50 [2]	GI50 [3]	GI50 [4]	GI50 [5]	GI50 [6]	GI50 [7]	GI50 [8]	GI50 [9]	GI50 [10]
O=C1c2ccccc2S(=O)(=O)c2cc(-c3nn[nH]n3)ccc21	> 100 µM	> 100 µM	> 100 µM	> 100 µM	> 100 µM	> 100 µM	> 100 µM	> 100 µM	> 100 µM	> 100 µM										
CCOC(=O)c1[nH]c(COC(C)=O)c2c1CCCCCCCCCC2	> 100 µM	> 100 µM	> 100 µM	> 100 µM	> 100 µM	> 100 µM	> 100 µM	> 100 µM	> 100 µM	> 100 µM										
CCN1CCC(O)(c2ccc(Cl)cc2)C(C(=O)c2ccc(Cl)cc2)C1 (configuration not stated)	> 100 µM	> 100 µM	> 100 µM	> 100 µM	> 100 µM	41.9 µM	> 100 µM	> 100 µM	> 100 µM	> 100 µM										
O=C1C(=O)c2cccnc2-c2ncccc21	1.29 µM	0.509 µM	1.59 µM	2.33 µM	1.1 µM	0.332 µM	0.848 µM	0.36 µM	0.268 µM	1.12 µM	0.328 µM	0.171 µM	0.409 µM	1.04 µM	0.236 µM	0.126 µM	0.211 µM	0.06 µM	0.139 µM	0.072 µM
C=C1C(=O)O[C@H]2[C@H]1CC/C(Cn1cc(-c3ccccc3C(F)(F)F)nn1)=C\CC[C@@]1(C)O[C@@H]21	8.95 µM	10.9 µM	19.2 µM	3.75 µM	25.8 µM	3.13 µM	13.1 µM	2.35 µM	9.4 µM	3.33 µM	2.46 µM	3.03 µM	5.88 µM	1.79 µM	10.8 µM	1.38 µM	2.4 µM	1.11 µM	2.77 µM	1.24 µM
COc1ccccc1NC(=O)CC(=O)N/N=C/c1ccc(N(CCC#N)S(=O)(=O)c2ccccc2)cc1	> 100 µM	> 100 µM	> 100 µM	> 100 µM	> 100 µM	> 100 µM	> 100 µM	> 100 µM	> 100 µM	> 100 µM										
Cn1cc2ccccc2c1-c1nc(F)nc(OCC(=O)[C@H]2CCC3[C@@H]4CCC5=CC(=O)CC[C@]5(C)C4[C@@H](O)C[C@@]32C)n1 (some centres not stated)	> 73.7 µM	54.3 µM	33.3 µM	42.7 µM	36 µM	31.2 µM	8.94 µM	23.3 µM	29.6 µM	33.4 µM										
OCC#Cc1ccccc1C#CCCCCCC#Cc1ccccc1C#CCO	28.6 µM	37.3 µM	49.4 µM	> 100 µM	> 100 µM	29.6 µM	57.7 µM	34.8 µM	> 100 µM	43.3 µM	12.8 µM	15.6 µM	18.8 µM	21.6 µM	34.8 µM	14.6 µM	22.4 µM	19.3 µM	41 µM	21.9 µM
O=C1c2ccccc2-c2c1c1ccccc1c(=O)n2CCCn1ccnc1	53.6 µM	0.763 µM	5.95 µM	6.27 µM	> 100 µM	> 100 µM	4.64 µM	4.33 µM	> 100 µM	30.2 µM	3.05 µM	0.274 µM	1.94 µM	1.22 µM	2.11 µM	2.14 µM	1.45 µM	0.924 µM	2.29 µM	0.949 µM
CC12CCC(Br)C(C)(C)C1CC=C1C(=O)OCC1O2 (configuration not stated)	> 53.3 µM	> 100 µM	32.3 µM	87.5 µM	> 50.4 µM	11.7 µM	> 100 µM	30.4 µM	42.3 µM	32.8 µM										
COc1cc2c(cc1OC)/C(=C\c1ccccc1N)C(=O)OC2	35.4 µM	8.24 µM	31.3 µM	30.4 µM	32.5 µM	3.47 µM	16.1 µM	4.18 µM	29 µM	13.9 µM										
COc1ccc2c(c1)C(=O)c1c-2n(CCCI)c(=O)c2cc([N+](=O)[O-])ccc12	7.75 µM and 46.3 µM	0.971 µM and 0.117 µM	50 µM and 46.6 µM		36.9 µM and > 100 µM	50 µM and 98.8 µM	50 µM and > 100 µM	0.763 µM and 1.01 µM	11.9 µM and 84.3 µM	7.91 µM and 15.6 µM		0.06 µM and 0.0214 µM	0.939 µM and 1.77 µM	0.16 µM and 0.437 µM	0.313 µM and 0.131 µM		0.0596 µM and 0.19 µM	0.0743 µM and 0.0432 µM	1.03 µM and 3.72 µM	0.0524 µM and 0.0345 µM
CC(C)(c1ccccc1)c1ccc(OC#N)cc1	> 100 µM	> 100 µM	> 100 µM	> 100 µM	> 100 µM	24.4 µM	> 100 µM	> 58.9 µM	> 100 µM	> 100 µM										
NC(N)=NS(=O)(=O)c1ccc(Nc2c3ccccc3nc3c(C(=O)Nc4ccc(S(N)(=O)=O)cc4)cccc23)cc1	> 100 µM	> 100 µM	> 100 µM	> 100 µM	> 100 µM	68.7 µM	> 100 µM	> 100 µM	> 100 µM	> 100 µM										
C=C(c1ccccc1)[C@@]1(O)CC[C@@H]1N(CC#N)Cc1ccccc1	> 100 µM	69.2 µM	> 71.4 µM	40 µM	> 63.8 µM	47.8 µM	> 74.3 µM	34.6 µM	29.1 µM	34.8 µM										
O=C1C(Cl)=C(NCc2ccco2)C(=O)c2ccccc21	> 65.1 µM	> 100 µM	> 100 µM	> 100 µM	> 100 µM	> 55.2 µM	> 100 µM	72.7 µM	19.2 µM	> 100 µM	33.8 µM	52.1 µM	8.67 µM	6.14 µM	24.3 µM	7.15 µM	4.55 µM	7.1 µM	6.91 µM	18.3 µM
Cn1cc(-c2ccc(-c3ccc(C4=NC5(CC5)C(=O)N4C[C@@H]4CCN(C(=O)C5CC5)C4)cc3)cc2)cn1	> 100 µM	80.8 µM	32.1 µM	> 100 µM	> 100 µM	40.6 µM	> 100 µM	18 µM	> 100 µM	> 100 µM	38.6 µM	4.31 µM	5.39 µM	12.5 µM	21.8 µM	12.3 µM	7.11 µM	1.47 µM	5.74 µM	18.2 µM
Cc1cn(-c2cc(NC(=O)c3ccc(C)c(Nc4nccc(-c5cccnc5)n4)c3)cc(C(F)(F)F)c2)cn1	> 10 µM and 16.4 µM	> 37.2 µM	> 10 µM and 9.49 µM	> 10 µM and 9.13 µM	> 10 µM and 32.7 µM	> 10 µM and 24.4 µM	> 10 µM and 1.03 µM	> 10 µM and 26.5 µM	> 10 µM and 7.32 µM	> 40.9 µM	> 10 µM and 3.48 µM	3.21 µM and 1.6 µM	3.81 µM and 2.72 µM	1.7 µM and 1.94 µM	> 10 µM and 13.1 µM	3.46 µM and 4.18 µM	2.15 µM	2.77 µM and 5.57 µM	5.15 µM and 2.39 µM	4.44 µM and 3.43 µM
C=CCC1C(=O)CC2(C)CC(=O)C(CC=C)C12C (configuration not stated)	> 100 µM	> 100 µM	> 100 µM	> 100 µM	> 100 µM	> 100 µM	> 100 µM	> 100 µM	> 100 µM	> 100 µM										
CCN(CC)c1ccc(N=Nc2ccc(-c3nc4ccc[n+](C)c4o3)cc2)cc1	16.3 µM	16.2 µM	24.5 µM	24.3 µM	26.1 µM	18.5 µM	12.4 µM	18.5 µM	25.2 µM	16.2 µM										
CCN(CC)C(=O)C(C)n1cc(C)c(=O)[nH]c1=O (configuration not stated)	> 100 µM	> 100 µM	> 100 µM	> 100 µM	> 100 µM	> 100 µM	> 100 µM	> 100 µM	> 100 µM	> 100 µM										
N#CC1CCCCCCCCCCC(=O)N(CCCl)C1=O (configuration not stated)	> 100 µM	> 100 µM	> 100 µM	> 100 µM	> 100 µM	> 100 µM	> 100 µM	> 100 µM	> 100 µM	> 100 µM										
